Source: patent EP0187057A1, “2-Phenyl-isopropyl-allophanate, preparation and pharmaceutical application” (priority 1984, dated 1986)
“And” between values parts separate entries of the source, which are not always exact repeats. Identical values can stand only once.

Experiments:
[1] = Traction test of Boissier and Simon (agility); assay type: in vivo, souris; conditions: mouse, in vivo, po; dose diminishing initial performance by 50 %; read-out: DA50 agilité
Description: (§1) On a donc étudié les effets dépresseurs que peuvent exercer des doses croissantes de SCS 289 sur : • - la motricité spontanée de la souris; • - sa curiosité, quantifiée par la méthode de la planche à trous; • - son agilité, évaluée par l'épreuve de la traction de Boissier et Simon; • - sa force musculaire, mesurée par l'épreuve des poids.
(§2) Les essais ont été pratiqués sur des groupes de 10 souris dont les performances motrices ont été mesurées à deux reprises : avant et une heure après traitement par le SCS 289 administré, par voie digestive à des doses allant de 10 à 200 mg/kg, actives vis-à-vis des convulsions pentétrazoliques et des crises psychomotrices. A noter que l'épreuve de la planche à trous utilisée pour chiffrer la curiosité des animaux (décompte du nombre de visites des trous) n'est pratiquée qu'une seule fois, le comportement explorateur des animaux traités étant alors comparé à celui des témoins.
(§3) Les résultats obtenus dans chaque groupe ont permis de calculer la DA50 capable de diminuer de 50 X les performances motrices initiales ou de diminuer de 50% la curiosité des souris traitées par rapport à celle des témoins.
(§4) Les expérimentations comportementales précédemment décrites ont été appliquées à des animaux recevant SCS 35 et SCS 289 aux doses de 10 et 25 mg/kg.

agilité de la souris = assay: Traction test of Boissier and Simon (agility); assay type: in vivo
Description: as §1, §2, §3, §4

Narcotic effect = conditions: mouse, in vivo; souris; read-out: DE50 narcotique
Method: En ce qui concerne la maniabilité, la comparaison des doses de SCS 289 exerçant, chez la souris, des effets létaux et anticonvulsivants permet de prévoir une marge thérapeutique assez confortable (dans le domaine du "petit mal") : • - DL50 = 2300 + 102 mg/kg; • - DE50 narcotique, comprise entre 1 et 2 g/kg; • - DE50 anticonvulsivante vis-à-vis du ^pentétrazol; • - DE50 anticonvulsivante vis-à-vis des crises psychomotrices.

crises psychomotrices = assay: Psychomotor seizures induced by low-frequency transcranial electrical stimulation; assay type: in vivo, souris; conditions: for Pourcentage de souris protégées une heure après traitement: groupes de 20 souris
Description: (§5) Propriétés anticonvulsivantes : • On a effectué, pour déterminer ces propriétés anticonvulsivantes, des expérimentations sur le SCS 289 en procédant à des essais de protection : • - chez le lapin soumis à une transélectrification cranienne génératrice de crises épileptiformes de type "grand mal" ou recevant une infusion veineuse de pentétrazol provoquant l'apparition de myoclonies palpébrales; • - chez la souris recevant, par voie sous-cutanée des doses croissantes de pentétrazol entraînant convulsions et mort ou soumise à une transélectrification transcranienne à basse fréquence génératrice de crises psychomotrices.
On a également recherché si le SCS 289 était susceptible de protéger la souris contre le choc psychomoteur induit par une stimulation transcranienne à basse fréquence qui provoque, chez l'animal, un bref comportement de désorientation rappelant les attaques psychomotrices de l'homme.
Vis-à-vis des crises psychomotrices provoquées chez la souris par une stimulation électrique transcranienne à basse fréquence, le SCS 35 apparait plus actif que le SCS 289 : […]

curiosité de la souris = assay: Hole-board test (curiosity, exploratory behaviour); assay type: in vivo
Description: as §1, §2, §3, §4

[2] = system: myoclonies palpébrales provoquées par l'infusion veineuse de pentétrazol; assay: Intravenous pentetrazol infusion producing palpebral myoclonus (threshold seizures); assay type: in vivo, lapin; conditions: for Dose moyenne de pentétrazol: controls 23,0; for Quantité de pentétrazol nécessaire à l'apparition des myoclonies palpébrales / Temps d'infusion veineuse nécessaire à l'apparition des myoclonies palpébrales: individual animals; for Temps d'infusion veineuse nécessaire à l'apparition des myoclonies palpébrales: comma separates minutes and seconds
Description: as §5
Les résultats quant à la protection contre les crises pentétrazoliques liminaires génératrices de myaclonies palpébrales figurent dans les tableaux ci-après.
L'administration préalable de SCS 289 retarde l'apparition des myoclonies palpébrales provoquées par l'infusion veineuse de pentétrazol.
Une expérimentation similaire pratiquée en essais croisés a donné les résultats suivants pour divers anticonvulsivants de référence : […]

[3] = lapins ayant reçu 50 mg/kg de SCS 289
[4] = lapins ayant reçu 100 mg/kg de SCS 289

SMILES: CC(C)OC(=O)N(C(N)=O)c1ccccc1 [SCS 289, phényl-2 allophanate d'isopropyle]
- ED50 at 1 h [1]: 42 mg/kg
- Propriétés déficitaires motrices sur l'agilité (pourcentage de diminution des scores) (agilité de la souris; 10 mg/kg voie digestive, one hour after treatment): 6,7%
- Propriétés déficitaires motrices sur l'agilité (pourcentage de diminution des scores) (agilité de la souris; 25 mg/kg): 20%
- Propriétés déficitaires motrices sur l'agilité (pourcentage de diminution des scores) (agilité de la souris; 50 mg/kg): 41,7%
- Propriétés déficitaires motrices sur l'agilité (pourcentage de diminution des scores) (agilité de la souris; 75 mg/kg): 77,3%
- Propriétés déficitaires motrices sur l'agilité (pourcentage de diminution des scores) (agilité de la souris; 100 mg/kg): 90%
- Propriétés déficitaires motrices sur l'agilité (pourcentage de diminution des scores) (agilité de la souris; 150 mg/kg): 100%
- Propriétés déficitaires motrices sur l'agilité (pourcentage de diminution des scores) (agilité de la souris; 200 mg/kg): 100%
- ED50 (Narcotic effect): 1000 to 2000 mg/kg
- Pourcentage de souris protégées une heure après traitement (crises psychomotrices; 5 mg/kg voie digestive): 45%
- Pourcentage de souris protégées une heure après traitement (crises psychomotrices; 10 mg/kg voie digestive): 50%
- Pourcentage de souris protégées une heure après traitement (crises psychomotrices; 25 mg/kg voie digestive): 95%
- Pourcentage de souris protégées une heure après traitement (crises psychomotrices; 50 mg/kg voie digestive): 100%
- Pourcentage de souris protégées une heure après traitement (crises psychomotrices; 2,5 mg/kg voie digestive): 35%
- ED50 (crises psychomotrices; Mus musculus, po, souris, voie digestive, read-out: DE50 capable de protéger 50 % des animaux contre les crises psychomotrices): 4.5 mg/kg
- activité par rapport au valproate de sodium (comparaison des DE50) (crises psychomotrices; crises psychomotrices, souris): 26 fois
- activité par rapport à la phénacétamide (comparaison des DE50) (crises psychomotrices; crises psychomotrices, souris): trois fois plus actif
- DL50/DE50 / Crises psycho-motrices (crises psychomotrices; index thérapeutique absolu, souris): 511
- DE50 psychodépressive / DE50 anticonvulsivante / Crises psycho-motrices (crises psychomotrices; index thérapeutique relatif, psychodépressive = mean of DE50 for agilité, force musculaire, motricité, curiosité): 16
- DE50 capable de protéger 50 % des animaux contre les crises psychomotrices (crises psychomotrices; souris, voie digestive): 4,5 mg/kg and ~5,5 mg/kg
- Nb de visites des trous Traités (curiosité de la souris; 10 mg/kg, par souris pendant cinq minutes, témoins 26,5): 27
- Nb de visites des trous Traités (curiosité de la souris; 25 mg/kg, témoins 26,4): 27,4
- Nb de visites des trous Traités (curiosité de la souris; 50 mg/kg, témoins 24,2): 23,6
- Nb de visites des trous Traités (curiosité de la souris; 75 mg/kg, témoins 27): 21,4
- Nb de visites des trous Traités (curiosité de la souris; 100 mg/kg, témoins 25,4): 8,6
- Nb de visites des trous Traités (curiosité de la souris; 150 mg/kg, témoins 24,2): 0
- Nb de visites des trous Traités (curiosité de la souris; 200 mg/kg, témoins 24,2): 0
- DA50 capable de diminuer de 50 % la curiosité de la souris (curiosité de la souris; méthode de Miller et Tainter, 60 min): 82,5 ± 7,6 mg/kg and ~82 mg/kg
- Elévation du seuil myoclonique ([2]; 50 mg/kg): 61,7%
- Dose moyenne de pentétrazol ([2]; 50 mg/kg): 37,2 mg/kg
- Elévation du seuil myoclonique ([2]; 100 mg/kg): 113%
- Dose moyenne de pentétrazol ([2]; 100 mg/kg): 49,2 mg/kg
- Quantité de pentétrazol nécessaire à l'apparition des myoclonies palpébrales [2, 3]: 40,78 mg/kg and 42,58 mg/kg and 51,43 mg/kg and 33,33 mg/kg and 43,68 mg/kg and 32,44 mg/kg and 22,22 mg/kg and 40 mg/kg and 45,15 mg/kg and 20 mg/kg
- Temps d'infusion veineuse nécessaire à l'apparition des myoclonies palpébrales [2, 3]: 26 minutes et secondes and 28 minutes et secondes (2×) and 36 minutes et secondes and 21,15 minutes et secondes and 31,40 minutes et secondes and 22,20 minutes et secondes and 15 minutes et secondes and 28,40 minutes et secondes and 16 minutes et secondes
- Quantité de pentétrazol nécessaire à l'apparition des myoclonies palpébrales [2, 4]: 51,85 mg/kg and 51,81 mg/kg and 46,28 mg/kg and 64 mg/kg and > 68,44 mg/kg and 45,15 mg/kg and 56,67 mg/kg and 33,84 mg/kg and 37,71 mg/kg and 36,41 mg/kg
- Temps d'infusion veineuse nécessaire à l'apparition des myoclonies palpébrales [2, 4]: 35 minutes et secondes and 37 minutes et secondes and 28 minutes et secondes and 32 minutes et secondes and > 45 minutes et secondes and 28,40 minutes et secondes and 34 minutes et secondes and 33 minutes et secondes (2×) and 35,30 minutes et secondes
- activité vis-à-vis des myoclonies palpébrales du lapin par rapport au valproate de sodium ([2]; relative activity, lapin): dix fois plus actif
- activité vis-à-vis des myoclonies palpébrales du lapin par rapport à la phénacétamide ([2]; relative activity, lapin): deux fois plus actif
